Target: T1, Wee1 kinase domain (Homo sapiens, UniProt P30291)
T1 construct: Wee1 kinase domain was purchased from Carna (catalog #05-177); purchased Carna 05-177
Assay: Wee1 Kinase Biochemical Assay (ADP-Glo)
Conditions: 15 uM ATP
Experimental: Wee1 Kinase Biochemical Assay Protocol
Wee1 kinase domain was purchased from Carna (catalog #05-177). Wee1 kinase activity was determined with Poly(Lys,Tyr 4:1) hydrobromide as a substrate (Sigma-Aldrich) and by measuring ADP production using the ADP-Glo Kinase Assay kit (Promega) following the manufacturer's instructions. The kinase reaction was performed using the following conditions:
Buffer: 40 mM Tris-HCl, 20 mM magnesium chloride, supplemented with 0.1 mg/mL bovine serum albumin and 2 mM DTT. The final reaction mix contained 1 nM Wee1 enzyme, 15 uM ATP, and 2 ng/mL Poly(Lys,Tyr 4:1) hydrobromide substrate. The reaction time was 4 hours at 25° C.
The ADP-Glo signal was measured using the Envision plate reader and the percentage inhibition of kinase activity calculated for each inhibitor tested. Percent inhibition of Wee1 kinase activity was calculated based on the following formula.
[formula] • SSample: the signal of compounds • SHigh Ctrl: the signal of high control (DMSO) • SLow Ctrl: the signal of low control (positive control Wee1 inhibitor at saturating concentration)

[1] = class symbols, 1 nM Wee1 enzyme, 4 hours at 25° C.
[2] = 1 nM Wee1 enzyme, 4 hours at 25° C

T1 sequence (P30291 299-569 limits assumed): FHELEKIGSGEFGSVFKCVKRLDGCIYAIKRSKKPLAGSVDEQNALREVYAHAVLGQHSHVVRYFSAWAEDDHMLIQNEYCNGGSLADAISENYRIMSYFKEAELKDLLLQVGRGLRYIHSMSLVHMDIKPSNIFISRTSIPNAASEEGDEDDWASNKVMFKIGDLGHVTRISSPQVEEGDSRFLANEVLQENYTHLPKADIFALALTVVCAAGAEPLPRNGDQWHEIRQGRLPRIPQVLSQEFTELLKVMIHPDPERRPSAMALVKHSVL

IC50 (Wee1 kinase domain, ADP-Glo)	SMILES	also measured
10 to 100 nM	C[C@H]1COC(=O)N1c1cccc(N2c3nc(N)ncc3[C@@]3(C)COC(C)(C)C[C@@H]23)n1 (single isomer, unassigned) [Example 356]	
10 to 100 nM	CNCc1ccc(Nc2ncc3c(n2)N(c2cccc(N4C(=O)OC[C@@H]4C)n2)[C@H]2CC(C)(C)OC[C@@]32C)cc1 (single isomer, unassigned) [Example 359]	
10 to 100 nM	Cc1cc(Nc2ncc3c(n2)N(c2cccc(N4C(=O)OC[C@@H]4C)n2)[C@H]2CC(C)(C)OC[C@@]32C)ccc1O[C@H]1CCNC1 (single isomer, unassigned) [Example 338]	
100 to 1000 nM	CN[C@@H](Cc1ccc(Nc2ncc3c(n2)N(c2cccc(N4C(=O)OC[C@@H]4C)n2)[C@H]2CC(C)(C)OC[C@@]32C)cc1)C(=O)O (single isomer, unassigned) [Example 320]	

More lines, now with the values behind:

SMILES	IC50 (Wee1 kinase domain, ADP-Glo)	also measured
C[C@H]1COC(=O)N1c1cccc(N2c3nc(Nc4ccc(C5(C)COC5)cc4)ncc3[C@]3(C)COC(C)(C)C[C@H]23)n1 (single isomer, unassigned) [Example 302]	100 to 1000 nM	
CNCc1cccc(N2c3nc(Nc4ccc([C@H]5CCC(=O)N5C)cc4)ncc3[C@]3(C)COC(C)(C)C[C@H]23)n1 (single isomer, unassigned) [Example 53]	≥ 1000 nM	
CN[C@H](C)c1cccc(N2c3nc(Nc4ccc(N5CCOCC5)cc4)ncc3[C@]3(C)COC(C)(C)C[C@H]23)n1 (single isomer, unassigned) [Example 550]		IC50 [1]: 100 to 1000 nM
CN1CCN(c2ccc(Nc3ncc4c(n3)N(c3cnccn3)[C@@H]3CC(C)(C)OC[C@]43C)cc2)CC1 (single isomer, unassigned) [Example 827]		IC50 [2]: < 10 nM
Cc1cc(Nc2ncc3c(n2)N(c2cccc(N=S(C)(C)=O)n2)[C@H]2CC(C)(C)OC[C@@]32C)ccc1[C@H]1COCCN1 (single isomer, unassigned) [Example 115]	10 to 100 nM	
CNCc1cccc(N2c3nc(Nc4ccc([C@H]5CCCO5)cc4)ncc3[C@]3(C)COC(C)(C)C[C@H]23)n1 (single isomer, unassigned) [Example 58]	≥ 1000 nM	
CNCc1cccc(N2c3nc(Nc4ccc(N5CC6CC5CO6)cc4)ncc3[C@]3(C)COC(C)(C)C[C@H]23)n1 (stereo in doubt) [Example 42, (4bS,8aS)-N-(4-((1R,4R)-2-oxa-5-azabicyclo[2.2.1]heptan-5-yl)phenyl)-4b,7,7-trimethyl-9-(6-((methylamino)methyl)pyridin-2-yl)-4b,5,7,8,8a,9-hexahydropyrano[3′,4′:4,5]pyrrolo[2,3-d]pyrimidin-2-amine]	10 to 100 nM	
C[C@H]1COC(=O)N1c1cccc(N2c3nc(Nc4ccc(O[C@H]5CCN(C)C5)nc4)ncc3[C@]3(C)COC(C)(C)C[C@H]23)n1 (single isomer, unassigned) [Example 280]	100 to 1000 nM	
CC1(C)C[C@H]2N(c3cccc(N=S(C)(C)=O)n3)c3nc(Nc4ccn(C5CC5)n4)ncc3[C@@]2(C)CO1 (single isomer, unassigned) [Example 831]		IC50 [2]: < 10 nM
CN1C[C@@H]2CN(c3ccc(Nc4ncc5c(n4)N(c4cccc(C(C)(C)O)n4)[C@H]4CC(C)(C)OC[C@@]54C)cc3)C[C@@H]2C1 (single isomer, unassigned) [Example 445]		IC50 [1]: 100 to 1000 nM
CC1(C)C[C@@H]2N(c3cccc(C(C)(C)N)n3)c3nc(Nc4ccc(N5CCOCC5)cc4)ncc3[C@]2(C)CO1 (single isomer, unassigned) [Example 568]		IC50 [1]: 10 to 100 nM
CNCc1cccc(N2c3nc(Nc4cnn(C(C)(C)C)c4)ncc3[C@]3(C)COC(C)(C)C[C@H]23)n1 (single isomer, unassigned) [Example 47]	100 to 1000 nM	
CN[C@@H](C)c1cccc(N2c3nc(Nc4ccc(N5CCOCC5)cc4)ncc3[C@]3(C)COC(C)(C)C[C@H]23)n1 (single isomer, unassigned) [Example 538]		IC50 [1]: 10 to 100 nM
CNCc1cccc(N2c3nc(Nc4ccc(S(C)(=O)=O)cc4)ncc3[C@]3(C)COC(C)(C)C[C@H]23)n1 (single isomer, unassigned) [Example 33]	100 to 1000 nM	

From patent US20260166039A1 (SCHRÖDINGER, INC., priority 2022, published 2026)
